From patent US20140235533A1, “DIHYDROFURAN DERIVATIVES AS INSECTICIDAL COMPOUNDS” (SYNGENTA PARTICIPATIONS AG, priority 2011, published 2014)

Tests used:
Assay type in all cases: in vivo
Spodoptera littoralis = Spodoptera littoralis (Egyptian cotton leafworm) cotton leaf disc spray test; conditions: foliar, 72 h, 200 ppm spray on cotton leaf discs, 5 L1 larvae, mortality, feeding behavior, growth regulation 3 days after treatment
Excerpt: Spodoptera littoralis (Egyptian Cotton Leafworm) Cotton leaf discs were placed on agar in a 24-well microtiter plate and sprayed with test solutions at an application rate of 200 ppm. After drying, the leaf discs were infested with 5 L1 larvae. The samples were checked for mortality, feeding behavior, and growth regulation 3 days after treatment (DAT).

Heliothis virescens = Heliothis virescens (tobacco budworm) egg test on artificial diet; conditions: 96 h, 200 ppm (concentration in well 18 ppm), eggs 0-24 h old on artificial diet, egg mortality, larval mortality, growth regulation after 4 days
Plutella xylostella = Plutella xylostella (diamond back moth) artificial diet MTP test; conditions: 144 h, 200 ppm (concentration in well 18 ppm), L2 larvae, larval mortality and growth regulation after 6 days
Procedure: (§1) Plutella xylostella (Diamond Back Moth): 24-well microtiter plate (MTP) with artificial diet was treated with test solutions at an application rate of 200 ppm (concentration in well 18 ppm) by pipetting. After drying, the MTPs were infested with L2 larvae (7-12 per well). After an incubation period of 6 days, samples were checked for larval mortality and growth regulation.

Diabrotica balteata = Diabrotica balteata (corn root worm) artificial diet MTP test; conditions: 120 h, 200 ppm (concentration in well 18 ppm), L2 larvae, larval mortality and growth regulation after 5 days
Procedure: as §1, with “Diabrotica balteata (Corn Root Worm): A” for “Plutella xylostella (Diamond Back Moth):”, “(6-10” for “(7-12”, “5” for “6”

Tetranychus urticae = Tetranychus urticae (two-spotted spider mite) bean leaf disc spray test; conditions: foliar, 192 h, 200 ppm spray on bean leaf discs, mite populations of mixed ages, egg, larval and adult mortality 8 days later
Excerpt: Tetranychus urticae (Two-Spotted Spider Mite): Bean leaf discs on agar in 24-well microtiter plates were sprayed with test solutions at an application rate of 200 ppm. After drying, the leaf discs are infested with mite populations of mixed ages. 8 days later, discs are checked for egg mortality, larval mortality, and adult mortality.

Measured: pest or weed control at 200 ppm

CSCC(=O)NCc1ccc(C2=COC(c3cc(Cl)cc(Cl)c3)(C(F)(F)F)C2)cc1Cl (centres unmarked) [Compound A1, N-[[2-chloro-4-[2-(3,5-dichlorophenyl)-2-(trifluoromethyl)-3H-furan-4-yl]phenyl]methyl]-2-methylsulfanyl-acetamide]
≥ 80%: all assays above

C[C@H](NC(=O)C1CC1)c1ccc(C2=COC(c3cc(Cl)c(Cl)c(Cl)c3)(C(F)(F)F)C2)cc1 (stereo partly drawn) [B1*, N-[(1S)-1-[4-[2-(3,4,5-trichlorophenyl)-2-(trifluoromethyl)-3H-furan-4-yl]phenyl]ethyl]cyclopropanecarboxamide]
≥ 80%: all assays above

O=C(NCc1ccc(C2=COC(c3cc(Cl)cc(Cl)c3)(C(F)(F)F)C2)cc1Cl)C1CC1 (centres unmarked) [Compound A2, N-[[2-chloro-4-[2-(3,5-dichlorophenyl)-2-(trifluoromethyl)-3H-furan-4-yl]phenyl]methyl]cyclopropanecarboxamide]
≥ 80%: all assays above

C/N=C1/SC(CC(=O)NCc2ccc(C3=COC(c4cc(Cl)cc(Cl)c4)(C(F)(F)F)C3)cc2Cl)C(=O)N1C (centres unmarked) [Compound A15, N-[[2-chloro-4-[2-(3,5-dichlorophenyl)-2-(trifluoromethyl)-3H-furan-4-yl]phenyl]methyl]-2-[(2E)-3-methyl-2-methylimino-4-oxo-thiazolidin-5-yl]acetamide]
≥ 80%: all assays above
